Assay results published in PMC4607586 (Bioorganic & medicinal chemistry letters, 2015).

Tests used:
HIV-1 LAI = assay: Antiviral assay using MT-2 cells exposed to HIV-1 LAI; type: cell-based
HIV-1 protease = HIV-1 protease (Human immunodeficiency virus type 1 group M subtype B, UniProt P04585); assay: HIV-1 protease enzyme inhibition assay; type: biochemical; conditions: for improvement of protease inhibitory activity over 5b: relative to N-methyl-N-propyl amide 5b

COC[C@H]1C[C@H](O)CN1C(=O)c1cccc(C(=O)N[C@@H](Cc2ccccc2)[C@H](O)CN(CC(C)C)S(=O)(=O)c2ccc(OC)cc2)c1 [Inhibitor 5i]
antiviral activity (in words) (HIV-1 LAI): moderate antiviral activity

CCCN(CCC)C(=O)c1cccc(C(=O)N[C@@H](Cc2ccccc2)[C@H](O)CN(CC(C)C)S(=O)(=O)c2ccc(OC)cc2)c1 [Inhibitor 5e]
antiviral activity (in words) (HIV-1 LAI): no appreciable antiviral activity

CCCN(C)C(=O)c1cccc(C(=O)N[C@@H](Cc2ccccc2)[C@H](O)CN(CC(C)C)S(=O)(=O)c2ccc(OC)cc2)c1 [Inhibitor 5b]
enhanced potency over 5a (enzyme inhibition) (HIV-1 protease; relative to 5a): 5 fold

COc1ccc(S(=O)(=O)N(CC(C)C)C[C@@H](O)[C@H](Cc2ccccc2)NC(=O)c2cccc(C(=O)N3CCOCC3)c2)cc1 [Inhibitor 5f]
antiviral activity (in words) (HIV-1 LAI): very good antiviral activity | improvement of protease inhibitory activity over 5b (HIV-1 protease): over 10 fold

COC[C@@H]1C[C@@H](O)CN1C(=O)c1cccc(C(=O)N[C@@H](Cc2ccccc2)[C@H](O)CN(CC(C)C)S(=O)(=O)c2ccc(OC)cc2)c1 [Inhibitor 5h]
antiviral activity (in words) (HIV-1 LAI): moderate antiviral activity

COc1ccc(S(=O)(=O)N(CC(C)C)C[C@@H](O)[C@H](Cc2ccccc2)NC(=O)c2cccc(C(=O)N3CCN(C)CC3)c2)cc1 [Inhibitor 5g]
antiviral activity (in words) (HIV-1 LAI): very good antiviral activity | improvement of protease inhibitory activity over 5b (HIV-1 protease): over 10 fold

COC[C@H]1C[C@@H](O)CN1C(=O)c1cccc(C(=O)N[C@@H](Cc2ccccc2)[C@H](O)CN(CC(C)C)S(=O)(=O)c2ccc(OC)cc2)c1 [Inhibitor 5k]
antiviral activity (in words) (HIV-1 LAI): moderate antiviral activity
